Assay results published in patent publication US20220324796A1, “ANTIBIOTIC COMPOUNDS” (The General Hospital Corporation, priority 2019, published 2022).
≈ marks a conversion by molar mass, not a printed value.

How the values were obtained:
[1] = tested on: VRSA strain VRS1 persisters; assay: Persister killing assay; type: cell-based, S. aureus; conditions: linezolid and daptomycin at 100× MIC; bithionol at indicated concentrations (FIG. 1E)
Method: (§1) Persister killing assay. […] Persister cells of MRSA MW2 or VRSA VRS1 were prepared by growing cultures overnight to stationary phase at 37° C. at 200 rpm and washing three times with PBS. 1 mL of ˜1×10^8 CFU/mL MRSA persisters was added to 1 mL of PBS containing a 2-fold higher concentration of the desired concentration of antibiotics in a 96-well assay block (Corning Costar 3960). For assays with daptomycin, PBS was supplemented with 50 μg/mL CaCl2. The assay block was incubated at 37° C. with shaking at 200 rpm. At various times, 400 μl samples were removed, washed once with PBS, serially diluted and spot-plated on TSA plates. Colonies were counted after overnight incubation at 37° C. to determine the titer of live cells. These experiments were conducted in triplicate.

[2] = tested on: stationary-phase MRSA MW2 persisters; assay: Persister killing assay; type: cell-based, S. aureus; conditions: for response of MRSA persisters to conventional antibiotics: 100× MIC; for killing / viability of MRSA persisters: in words, 4 h treatment (FIGS. 5, 13, 14, 4B)
Method: as §1

MRSA MW2 [3] = assay: MIC assay (micro-dilution); type: cell-based, S. aureus; conditions: Staphylococcus aureus
Method: (§2) Minimal inhibitory concentration (MIC) assay. The MICs of antibiotics were determined by the standard micro-dilution method recommended by the Clinical and Laboratory Standards Institute. MIC assays were conducted in biological triplicate.
(§3) Antimicrobial activity of each analog was tested against four MRSA strains (MW2, BF1, BF2, and BF3), Pseudomonas aeruginosa (PA14), Klebsiella pneumonia (WGLW2), and Acinetobacter baumannii (ATCC 17978).

MRSA BF2 = assay: MIC assay (micro-dilution); type: cell-based, S. aureus; conditions: Staphylococcus aureus
Method: as §2, §3

MRSA BF1 = assay: MIC assay (micro-dilution); type: cell-based, S. aureus; conditions: Staphylococcus aureus
Method: as §2, §3

MRSA BF3 = assay: MIC assay (micro-dilution); type: cell-based, S. aureus; conditions: Staphylococcus aureus
Method: as §2, §3

P. aeruginosa PA14 = assay: MIC assay (micro-dilution); type: cell-based; conditions: Pseudomonas aeruginosa
Method: as §2, §3

A. baumannii ATCC 17978 = assay: MIC assay (micro-dilution); type: cell-based; conditions: Acinetobacter baumannii, ATCC17978
Method: as §2, §3

K. pneumoniae WGLW2 = assay: MIC assay (micro-dilution); type: cell-based, Klebsiella pneumonia; conditions: Klebsiella pneumoniae
Method: as §2, §3

MRSA MW2 [4] = assay: Antimicrobial activity (MIC) of bithionol analogs; type: cell-based, S. aureus; conditions: for antimicrobial activity compared with bithionol: in words (FIGS. 5, 13, 14)
Method: as §2

MRSA MW2 cells = assay: Bacterial membrane permeability assay (SYTOX Green); type: cell-based, S. aureus; conditions: for SYTOX Green membrane permeabilization: MRSA MW2 exponential-phase cells and/or persisters, in words; for membrane activity compared with bithionol: in words (FIGS. 5, 13, 14)
Method: Bacterial membrane permeability assay. Exponential-phase or stationary-phase S. aureus MW2 cells prepared as described above under Killing kinetics assay and Persister killing assay, respectively, were washed 3 times with the same volume of PBS. The washed cells were adjusted to OD600=0.4 with PBS. SYTOX Green (Molecular Probes, Waltham, Mass., USA) was added to 10 mL of the diluted bacterial suspension to a final concentration of 5 μM and incubated for 30 min at room temperature in the dark. 50 μl of the bacterial/SYTOX Green suspension was mixed with 50 μl of phosphate buffered saline (PBS) containing twice the desired concentrations of compounds in black, clear-bottom, 96-well plates (Corning no. 3904). Fluorescence was measured at room temperature using a spectrophotometer (SpectraMax M2, Molecular Devices) with excitation and emission wavelengths of 485 nm and 525 nm, respectively. All experiments were conducted in biological triplicate.

S. aureus MW2 = assay: Membrane fluidity assay (Laurdan GP); type: cell-based; conditions: 32 μg/mL (FIG. 4), in words
Method: Membrane fluidity assay. Bacterial membrane fluidity was estimated by slightly modifying previously described methods. An overnight culture of S. aureus MW2 was diluted 1:1,000 in 25 mL TSB. The diluted culture was grown to OD600˜1.5 at 37° C. with shaking at 200 rpm, followed by 10 min incubation with 10 μM Laurdan at room temperature in the dark (Sigma-Aldrich, Cat # 40227). The stained cell culture was washed with PBS 4 times and concentrated 2 times. 100 μL of the 2-fold concentrated culture was mixed with 100 μL of phosphate buffered saline (PBS) containing twice the desired concentrations of compounds in black, clear-bottom, 96-well plates (Corning no. 3904). After 1 h incubation at room temperature in the dark, the Laurdan fluorescence intensities were measured using a spectrophotometer (SpectraMax M2, Molecular Devices) with emission wavelengths of 435 nm and 490 nm upon excitation at 350 nm. The Laurdan GP was calculated using the formula GP=(I435−I490)/(I435+I490). All experiments were conducted in biological triplicate.

18 S. aureus strains = assay: MIC assay, S. aureus strains of the panel; type: cell-based; conditions: Staphylococcus aureus; range over the 18 S. aureus strains of the panel (FIG. 6)
Method: Bacterial strains and growth conditions. S. aureus strains were grown in tryptic soy broth (TSB) (BD, Franklin Lakes, N.J., USA). E. faecium and E. faecalis strains were grown in brain-heart infusion (BHI) broth (BD, Franklin Lakes, N.J., USA), and four Gram-negative species, Klebsiella pneumoniae, Acinetobacter baumannii, Pseudomonas aeruginosa, and Enterobacter aerogenes were grown in Luria Bertani (LB) broth (BD, Franklin Lakes, N.J., USA). All bacteria were grown at 37° C. at 200 r.p.m.
as §2

[5] = tested on: MRSA strain MW2 persisters; assay: Deep-seated mouse thigh infection model, bacterial load; type: in vivo; conditions: 30 mg/kg each agent, every 12 h for 3 days from 24 h post-infection
Method: Deep-seated mouse thigh infection model. […] Mice were euthanized at 96 h post-infection. […] Thighs were homogenized in PBS, serially diluted with PBS, and spot-plated on TSA plates.

Molecule	antimicrobial activity compared with bithionol (MRSA MW2 [4])	SYTOX Green membrane permeabilization (MRSA MW2 cells)	membrane activity compared with bithionol (MRSA MW2 cells)	killing / viability of MRSA persisters [2]	melting point [°C]	other results
CC(=O)NC[C@H]1CN(c2ccc(N3CCOCC3)c(F)c2)C(=O)O1 [linezolid]	–	–	–	–	–	activity against VRSA VRS1 persisters [1]: no; response of MRSA persisters to conventional antibiotics [2]: high level of tolerance
NCCOc1c(Cl)cc(Cl)cc1Sc1cc(Cl)cc(Cl)c1OCCN [Compound 1]	–	–	–	–	–	MIC (MRSA MW2 [3]): 64 µg/mL (≈ 145 µM); MIC (MRSA BF2): 64 µg/mL (≈ 145 µM); MIC (MRSA BF1): 64 µg/mL (≈ 145 µM); MIC (MRSA BF3): 32 µg/mL (≈ 72.4 µM); MIC (P. aeruginosa PA14): > 64 µg/mL; MIC (A. baumannii ATCC 17978): 64 µg/mL (≈ 145 µM); MIC (K. pneumoniae WGLW2): 64 µg/mL (≈ 145 µM)
[O-][S+](c1cc(Cl)cc(Cl)c1O)c1cc(Cl)cc(Cl)c1O [bitin-S]	decreased antimicrobial activity	permeabilize MRSA persister cell membranes	reduced membrane activity	do not kill them	–	MIC (MRSA MW2 [4]; bithionol analogs (FIGS. 5 and 13), strain not given): 8 µg/mL (≈ 21.5 µM); change in membrane fluidity (Laurdan GP) (S. aureus MW2): do not cause the change in membrane fluidity
CCCCCCCCCC(=O)N[C@@H](Cc1c[nH]c2ccccc12)C(=O)N[C@H](CC(N)=O)C(=O)N[C@@H](CC(=O)O)C(=O)N[C@@H]1C(=O)NCC(=O)N[C@@H](CCCN)C(=O)N[C@@H](CC(=O)O)C(=O)N[C@H](C)C(=O)N[C@@H](CC(=O)O)C(=O)NCC(=O)N[C@H](CO)C(=O)N[C@@H]([C@H](C)CC(=O)O)C(=O)N[C@@H](CC(=O)c2ccccc2N)C(=O)O[C@@H]1C [daptomycin]	–	does not induce rapid SYTOX Green membrane permeabilization	–	does not kill MRSA persisters	–	MIC (18 S. aureus strains): 0.5 to 8 µg/mL (≈ 0.309 to 4.94 µM); activity against VRSA VRS1 persisters [1]: nominal activity; response of MRSA persisters to conventional antibiotics [2]: high level of tolerance
Oc1c(Cl)cc(F)cc1Sc1cc(F)cc(Cl)c1O [BT-pF, 6,6′-thio-bis-(2-chloro-4-fluorophenol)]	slightly reduced	permeabilize MRSA persister cell membranes	slightly reduced	do not kill them	140 to 142	–
Oc1c(Br)cc(Cl)cc1Sc1cc(Cl)cc(Br)c1O [BT-oBr, 6,6′-thio-bis-(2-bromo-4-chlorophenol)]	similar	–	similar	–	178 to 180	–
Oc1c(F)cc(F)cc1Sc1cc(F)cc(F)c1O [BT-opF, 6,6′-thio-bis-(2,4-difluorophenol)]	slightly reduced	–	slightly reduced	–	127 to 130	–
CN[C@H](CC(C)C)C(=O)N[C@H]1C(=O)N[C@@H](CC(N)=O)C(=O)N[C@H]2C(=O)N[C@H]3C(=O)N[C@H](C(=O)N[C@H](C(=O)O)c4cc(O)cc(O)c4-c4cc3ccc4O)[C@H](O)c3ccc(c(Cl)c3)Oc3cc2cc(c3O[C@@H]2O[C@H](CO)[C@@H](O)[C@H](O)[C@H]2O[C@H]2C[C@](C)(N)[C@H](O)[C@H](C)O2)Oc2ccc(cc2Cl)[C@H]1O [vancomycin]	–	–	–	–	–	effect on MRSA CFUs in the mouse thigh [5]: did not significantly reduce
Oc1c(Cl)cc(Br)cc1Sc1cc(Br)cc(Cl)c1O [BT-pBr, 6,6′-thio-bis-(4-bromo-2-chlorophenol)]	similar	–	similar	–	200 to 202	–
Oc1c(Br)cc(Br)cc1Sc1cc(Br)cc(Br)c1O [BT-opBr, 6, 6′-thio-bis-(2,4-dibromophenol)]	similar	–	similar	–	164 to 166	–
Oc1c(F)cc(Cl)cc1Sc1cc(Cl)cc(F)c1O [BT-oF, 6,6′-thio-bis-(4-chloro-2-fluorophenol)]	slightly reduced	permeabilize MRSA persister cell membranes	slightly reduced	do not kill them	159 to 161	–
gentamicin	–	–	–	–	–	effect on MRSA CFUs in the mouse thigh [5]: did not significantly reduce
COc1c(Cl)cc(Cl)cc1Sc1cc(Cl)cc(Cl)c1OC [BT-OMe, bis-(3,5-Dichloro-2-methoxyphenyl)-sulfane]	complete nullification	–	complete nullification	–	–	–
